Experimental data published in patent US20240360157A1, “TYK2 INHIBITORS” (BIOGEN MA INC., priority 2021, published 2024).
Where a name gives a salt, the structure may show the parent alone.

Columns and labels:
Format in all cases: biochemical
[1] = biological target: human JAK2 catalytic kinase (JH1) domain (Homo sapiens (Human), UniProt O60674); assay: ADP-Glo Kinase Assay, recombinant JAK2 catalytic kinase (JH1) domain; conditions: recombinant JH1 domain 0.2 nM, 15 μM ATP, JAK3-974 peptide, mean, read-out: JAK2 biochem IC50 (nM) Mean
Procedure, shortened: (§1)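 Compounds were titrated in 11 points of 3-fold dilution starting at 10 μM or 1 μM. Enzyme (JAK1 4 nM, JAK2 0.2 nM, JAK3 0.3 nM, TYK2 2 nM) and 50 μM peptide reacted for 100 minutes, followed by ADP-to-luminescence detection; IC50 by 4-parameter fit.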

[2] = biological target: human JAK3 catalytic kinase (JH1) domain (Homo sapiens (Human), UniProt P52333); assay: ADP-Glo Kinase Assay, recombinant JAK3 catalytic kinase (JH1) domain; conditions: recombinant JH1 domain 0.3 nM, 4 μM ATP, JAK3-974 peptide, mean, read-out: JAK3 biochem IC50 (nM) Mean
Procedure, shortened: as §1

[3] = biological target: human TYK2 catalytic kinase (JH1) domain (Homo sapiens (Human), UniProt P29597); assay: ADP-Glo Kinase Assay, recombinant TYK2 catalytic kinase (JH1) domain; conditions: recombinant JH1 domain 2 nM, 10 μM ATP, JAK3-974 peptide, mean, read-out: TYK2 biochem IC50 (nM) Mean
Procedure, shortened: as §1

[4] = biological target: human JAK1 catalytic kinase (JH1) domain (Homo sapiens (Human), UniProt P23458); assay: ADP-Glo Kinase Assay, recombinant JAK1 catalytic kinase (JH1) domain; conditions: recombinant JH1 domain 4 nM, 35 μM ATP, JAK3-342 peptide, mean, read-out: JAK1 biochem IC50 (nM) Mean
Procedure, shortened: as §1

human JAK3 catalytic kinase (JH1) domain, sequence (P52333 822-1111): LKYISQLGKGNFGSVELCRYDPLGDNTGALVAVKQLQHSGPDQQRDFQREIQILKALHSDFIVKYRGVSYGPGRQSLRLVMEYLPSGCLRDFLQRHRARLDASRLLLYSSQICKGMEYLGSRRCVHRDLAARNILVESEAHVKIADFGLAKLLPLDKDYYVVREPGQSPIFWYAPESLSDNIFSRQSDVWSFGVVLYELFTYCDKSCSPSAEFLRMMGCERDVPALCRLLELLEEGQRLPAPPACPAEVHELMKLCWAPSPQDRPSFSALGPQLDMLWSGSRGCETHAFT
human JAK1 catalytic kinase (JH1) domain, sequence (P23458 875-1153): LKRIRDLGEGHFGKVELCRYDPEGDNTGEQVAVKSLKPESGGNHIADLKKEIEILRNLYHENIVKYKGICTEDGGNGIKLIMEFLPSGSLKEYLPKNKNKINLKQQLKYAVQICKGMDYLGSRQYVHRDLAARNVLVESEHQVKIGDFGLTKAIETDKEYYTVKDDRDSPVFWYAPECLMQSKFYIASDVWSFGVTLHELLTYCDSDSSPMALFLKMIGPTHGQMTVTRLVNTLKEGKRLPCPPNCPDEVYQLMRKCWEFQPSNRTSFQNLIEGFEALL
human TYK2 catalytic kinase (JH1) domain, sequence (P29597 897-1176): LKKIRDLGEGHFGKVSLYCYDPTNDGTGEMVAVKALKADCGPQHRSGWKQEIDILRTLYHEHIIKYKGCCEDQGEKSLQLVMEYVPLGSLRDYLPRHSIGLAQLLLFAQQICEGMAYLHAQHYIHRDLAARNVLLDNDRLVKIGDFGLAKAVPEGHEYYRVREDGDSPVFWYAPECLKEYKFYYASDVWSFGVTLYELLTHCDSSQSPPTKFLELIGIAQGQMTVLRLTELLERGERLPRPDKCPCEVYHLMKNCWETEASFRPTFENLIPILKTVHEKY
human JAK2 catalytic kinase (JH1) domain, sequence (O60674 849-1124): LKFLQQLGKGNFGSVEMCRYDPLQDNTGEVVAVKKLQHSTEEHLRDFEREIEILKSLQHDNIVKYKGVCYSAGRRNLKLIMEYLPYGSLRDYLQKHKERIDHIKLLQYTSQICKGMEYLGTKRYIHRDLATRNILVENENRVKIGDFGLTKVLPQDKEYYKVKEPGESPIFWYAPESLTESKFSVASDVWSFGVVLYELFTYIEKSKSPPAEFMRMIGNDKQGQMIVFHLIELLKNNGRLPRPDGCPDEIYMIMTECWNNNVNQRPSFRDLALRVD

SMILES | IC50 [1] [nM] | IC50 [2] [nM] | IC50 [3] [nM] | IC50 [4] [nM]
N#CC1(C(=O)N2C3CCC2CN(c2ncnn4cc(-c5cnn(C(F)F)c5)cc24)C3)CC1 [Example 30, 1-(3-(6-(1-(difluoromethyl)-1H-pyrazol-4-yl)pyrrolo[2,1-f][1,2,4]triazin-4-yl)-3,8-diazabicyclo[3.2.1]octane-8-carbonyl)cyclopropane-1-carbonitrile trifluoroacetate] | 938 | 820 | 90 | 191
Cn1cc(-c2cc3c(N4CC5CCC(C4)N5C(=O)[C@H]4CC4(F)F)ncnn3c2)cn1 [Example 84, ((R)-2,2-difluorocyclopropyl)(3-(6-(1-methyl-1H-pyrazol-4-yl)pyrrolo[2,1-f][1,2,4]triazin-4-yl)-3,8-diazabicyclo[3.2.1]octan-8-yl)methanone] | 1220 | 6890 | 55 | 1800
COc1cc(-n2cc3nccc(N4CC5CCC(C4)N5C(=O)[C@@H]4C[C@H]4F)c3n2)ccn1 [Example 37, ((1S,2R)-2-fluorocyclopropyl)(3-(2-(2-methoxypyridin-4-yl)-2H-pyrazolo[4,3-b]pyridin-7-yl)-3,8-diazabicyclo[3.2.1]octan-8-yl)methanone] | 88 | 868 | 11 | 72
N#C[C@@H]1C[C@H]1C(=O)N1C2CCC1CN(c1ncnn3cc(-c4cnn(C(F)F)c4)cc13)C2 (single isomer, unassigned) [Example 78] | 1510 | 6880 | 120 | 869
Cn1ncc(-c2cc3c(N4CC5CCC(C4)N5C(=O)[C@@H]4C[C@H]4F)ccnn3c2)c1F [Example 133, (3-(6-(5-fluoro-1-methyl-1H-pyrazol-4-yl)pyrrolo[1,2-b]pyridazin-4-yl)-3,8-diazabicyclo[3.2.1]octan-8-yl)((1S,2R)-2-fluorocyclopropyl)methanone] | 112 | 856 | 6 | 124
Cc1ccc(-c2nc3c(N4CC5CCC(C4)N5C(=O)[C@@H]4C[C@H]4F)ccnc3[nH]2)cn1 [Example 205, ((1S,2R)-2-fluorocyclopropyl)(3-(2-(6-methylpyridin-3-yl)-3H-imidazo[4,5-b]pyridin-7-yl)-3,8-diazabicyclo[3.2.1]octan-8-yl)methanone] | 22 | 246 | 4.6 | 25
CCn1cc(-c2cc3c(N4CC5CCC(C4)N5C(=O)C4CC4)ncnn3c2)cn1 [Example 147] | 2960 | 2090 | 147 | 974
O=C([C@H]1C[C@H](C(F)(F)F)C1)N1C2CCC1CN(c1ncnn3cc(-c4cnn(C(F)F)c4)cc13)C2 [Example 28, (3-(6-(1-(difluoromethyl)-1H-pyrazol-4-yl)pyrrolo[2,1-f][1,2,4]triazin-4-yl)-3,8-diazabicyclo[3.2.1]octan-8-yl)((1r,3r)-3-(trifluoromethyl)cyclobutyl)methanone] | 10000 | 10000 | 636 | 2140
CC(C)n1ncc(-c2cc3c(N4CC5CCC(C4)N5C(=O)C4CC4)ncnn3c2)c1F [Example 162] | 1620 | 1250 | 94.9 | 210
O=C([C@@H]1C[C@H]1F)N1C2CCC1CN(c1ccnn3cc(-c4cnn(C(F)F)c4)cc13)C2 [Example 17, (3-(6-(1-(difluoromethyl)-1H-pyrazol-4-yl)pyrrolo[1,2-b]pyridazin-4-yl)-3,8-diazabicyclo[3.2.1]octan-8-yl)((1S,2R)-2-fluorocyclopropyl)methanone] | 36 | 437 | 1 | 37
O=C(C1CCC1F)N1C2CCC1CN(c1ncnn3cc(-c4cnn(C(F)F)c4)cc13)C2 (stereo not drawn) [Example 9, (3-(6-(1-(difluoromethyl)-1H-pyrazol-4-yl)pyrrolo[2,1-f][1,2,4]triazin-4-yl)-3,8-diazabicyclo[3.2.1]octan-8-yl)(2-fluorocyclobutyl)methanone] | 5700 | 5780 | 202 | 3080
CC(F)(F)C(=O)N1C2CCC1CN(c1ncnn3cc(-c4cnn(C(F)F)c4)cc13)C2 [Example 56, 1-(3-(6-(1-(difluoromethyl)-1H-pyrazol-4-yl)pyrrolo[2,1-f][1,2,4]triazin-4-yl)-3,8-diazabicyclo[3.2.1]octan-8-yl)-2,2-difluoropropan-1-one] | 3340 | 1360 | 233 | 1140
Cn1cc(-c2cc3c(N4CC5CCC(C4)N5C(=O)[C@H]4C[C@@H]4F)ncnn3c2)cn1 (single isomer, unassigned) [Example 81] | 1450 | 5610 | 31.2 | 1420
O=C([C@H]1C[C@@H]1F)N1C2CCC1CN(c1ncnn3cc(-c4cnn(C(F)F)c4)cc13)C2 [Example 4, (3-(6-(1-(difluoromethyl)-1H-pyrazol-4-yl)pyrrolo[2,1-f][1,2,4]triazin-4-yl)-3,8-diazabicyclo[3.2.1]octan-8-yl)((1R,2S)-2-fluorocyclopropyl)methanone] | 1450 | 776 | 73.6 | 452
CCn1ncc(-c2cc3c(N4CC5CCC(C4)N5C(=O)C4CC4)ncnn3c2)c1F [Example 161] | 2460 | 1230 | 120 | 492
O=C(C1C[C@H]1F)N1C2CCC1CN(c1ncnc3[nH]c(-c4cncc(F)c4)cc13)C2 (stereo partly drawn) [Example 229] | 1740 | 10000 | 122 | 1240
O=C(C1C[C@H]1F)N1C2CCC1CN(c1ncnc3[nH]c(-c4ccncc4F)cc13)C2 (stereo partly drawn) [Example 232] | 322 | 848 | 13.1 | 226
O=C(C1CC1)N1C2CCC1CN(c1ncnn3cc(-c4cnn([C@H]5CCOC5)c4)cc13)C2 [Example 157, cyclopropyl(3-(6-(1-((S)-tetrahydrofuran-3-yl)-1H-pyrazol-4-yl)pyrrolo[2,1-f][1,2,4]triazin-4-yl)-3,8-diazabicyclo[3.2.1]octan-8-yl)methanone] | 2270 | 2250 | 151 | 1380
Cn1cc(-c2cc3c(N4CC5CCC(C4)N5S(=O)(=O)C4CC4)ncnc3[nH]2)cn1 [Example 191] | 601 | 650 | 102 | 1780
O=C(C1CC1)N1C2CCC1CN(c1ncnn3cc(-c4ccc5nncn5c4)cc13)C2 [Example 184] | 7480 | 6270 | 230 | 2340
O=C([C@H]1C[C@H]1F)N1C2CCC1CN(c1ncnn3cc(-c4cnn(C(F)F)c4)cc13)C2 (single isomer, unassigned) [Example 73] | ≥ 10000 | 8860 | 987 | 2350
Cc1cc(-c2cc3c(N4CC5CCC(C4)N5C(=O)[C@@H]4C[C@H]4F)ccnn3c2)ccn1 [Example 100, ((1S,2R)-2-fluorocyclopropyl)(3-(6-(2-methylpyridin-4-yl)pyrrolo[1,2-b]pyridazin-4-yl)-3,8-diazabicyclo[3.2.1]octan-8-yl)methanone] | 43 | 756 | 2.5 | 26
COc1cc(-c2cc3c(N4CC5CCC(C4)N5S(=O)(=O)C4CC4)ncnc3[nH]2)ccn1 [Example 192] | 3060 | 10000 | 298 | 1860
O=C([C@@H]1CC1(F)F)N1C2CCC1CN(c1ncnc3[nH]c(-c4cnn(C(F)F)c4)cc13)C2 [Example 222, ((S)-2,2-difluorocyclopropyl)(3-(6-(1-(difluoromethyl)-1H-pyrazol-4-yl)-7H-pyrrolo[2,3-d]pyrimidin-4-yl)-3,8-diazabicyclo[3.2.1]octan-8-yl)methanone] | 128 | 999 | 5.7 | 132
COc1cc(-c2cc3c(N4CC5CCC(C4)N5C(=O)[C@@H]4C[C@H]4F)ccnn3c2)cnn1 [Example 137, ((1S,2R)-2-fluorocyclopropyl)(3-(6-(6-methoxypyridazin-4-yl)pyrrolo[1,2-b]pyridazin-4-yl)-3,8-diazabicyclo[3.2.1]octan-8-yl)methanone] | 220 | 4200 | 17.6 | 150
Cn1ncc(-c2cc3c(N4CC5CCC(C4)N5C(=O)[C@@H]4C[C@H]4F)ccnn3c2)c1F [Example 121, (3-(6-(5-fluoro-1-methyl-1H-pyrazol-4-yl)pyrrolo[1,2-b]pyridazin-4-yl)-3,8-diazabicyclo[3.2.1]octan-8-yl)((1S,2R)-2-fluorocyclopropyl)methanone] | 113 | 606 | 4.7 | 117
COc1cc(-c2cn3nccc(N4CC5CCC(C4)N5C(=O)[C@@H]4C[C@H]4F)c3n2)ccn1 [Example 248, ((1S,2R)-2-fluorocyclopropyl)(3-(2-(2-methoxypyridin-4-yl)imidazo[1,2-b]pyridazin-8-yl)-3,8-diazabicyclo[3.2.1]octan-8-yl)methanone] | 48 | 515 | 9.5 | 23
